Experimental findings from patent publication US7863332B2, “Biaromatic compound activators of PPARγ receptors and cosmetic/pharmaceutical compositions comprised thereof” (Galderma Research & Development, priority 2004, dated 2011) are described below.

Data set [1] concerns the target T1, PPARγ (Homo sapiens, UniProt P37231).
T1 sequence (P37231 238-505 limits assumed): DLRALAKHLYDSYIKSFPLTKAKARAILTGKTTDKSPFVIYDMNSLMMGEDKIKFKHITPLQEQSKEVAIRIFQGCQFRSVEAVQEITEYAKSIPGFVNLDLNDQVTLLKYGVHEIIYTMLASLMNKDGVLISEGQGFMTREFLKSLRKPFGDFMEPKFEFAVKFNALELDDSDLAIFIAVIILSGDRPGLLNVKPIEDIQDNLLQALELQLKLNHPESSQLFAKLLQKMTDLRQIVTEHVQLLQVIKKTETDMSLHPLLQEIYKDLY
Put plainly: Cross-curve PPAR transactivation test (PPARγ). The format is cell-based. The note with it: HeLN cells, Gal-hPPARγ, luciferase reporter; cross curves against reference agonist, Schild regression; n.a means not active; read-out: PPAR gamma Kd app. The protocol: (§1) The activation of PPAR receptors with an agonist (activator) in HeLN cells leads to the expression of a reporter gene, luciferase, which, in the presence of a substrate, generates light. The modulation of the PPAR receptors is measured by quantifying the luminescence produced after incubating the cells in the presence of a reference agonist. The ligands displace the agonist from its site. The measurement of the activity is performed by quantifying the light produced. This measurement makes it possible to determine the modulatory activity of the compounds according to the invention by determining the constant that is the affinity of the molecule for the PPAR receptor. Since this value can fluctuate depending on the basal activity and the expression of the receptor, it is referred to as Kd apparent (KdApp in nM).
(§2) To determine this constant, “cross curves” of the test product against a reference agonist are produced in a 96-well plate: 10 concentrations of the test product plus a concentration 0 are arranged in a line, and 7 concentrations of the agonist plus a concentration 0 are arranged in a column. This is 88 measurement points for 1 product and 1 receptor. The remaining 8 wells are used for repeatability controls.
(§3) Measurements are also taken for total agonist controls with the same products.
(§4) The HeLN cell lines used are stable transfectants containing the plasmids ERE-βGlob-Luc-SV-Neo (reporter gene) and PPAR (α, δ, γ) Gal-hPPAR. These cells are inoculated into 96-well plates at a rate of 10 000 cells per well in 100 μl of DMEM medium without phenol red and supplemented with 10% of defatted calf serum. The plates are then incubated at 37° C. and 7% CO2 for 16 hours.
(§5) The various dilutions of the test products and of the reference ligand are added at a rate of 5 μl per well. The plates are then incubated for 18 hours at 37° C. and 7% CO2. The culture medium is removed by turning over and 100 μl of a 1:1 PBS/luciferin mixture are added to each well. After 5 minutes, the plates are read by the luminescence detector.
A general note: A reporter such as luciferase makes a cellular process visible.

Data set [2] concerns the target T2, PPARδ (Homo sapiens, UniProt Q03181).
T2 sequence (Q03181 171-441 limits assumed): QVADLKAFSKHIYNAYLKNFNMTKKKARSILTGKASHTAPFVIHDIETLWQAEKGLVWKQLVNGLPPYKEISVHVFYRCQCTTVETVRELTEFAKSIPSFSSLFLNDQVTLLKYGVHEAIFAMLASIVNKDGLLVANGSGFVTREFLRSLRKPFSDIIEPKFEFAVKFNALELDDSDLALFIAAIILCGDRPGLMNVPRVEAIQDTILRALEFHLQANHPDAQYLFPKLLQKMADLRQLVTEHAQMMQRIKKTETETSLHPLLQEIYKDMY
Put plainly: Cross-curve PPAR transactivation test (PPARδ). The format is cell-based. The note with it: HeLN cells, Gal-hPPARδ, luciferase reporter; cross curves against reference agonist, Schild regression; n.a means not active; read-out: PPARs delta Kd app. The protocol:
as §1, §2, §3, §4, §5

Data set [3] deals with sebocytes obtained from rat preputial glands. The experiment in a line: Rat sebocyte culture test. The format is cell-based. The note with it: 120 h, 14C acetate-labelled lipids, 5 days incubation + 24 hours label, read-out: Triglycerides AC50. An excerpt:
Sebocytes in culture obtained from rat preputial gland constitute a pertinent model for evaluating sebaceous function modulatory compounds as described by Rosenfield et al. (Mechanisms of androgen induction of sebocyte differentiation. Rosenfield R. L., Deplewski D., Kentsis A., Ciletti N., Dermatology, 1998; 196(1):43-6). This model has especially been used to characterize PPAR compounds with potential in dermatology (Rat preputial sebocyte differentiation involves peroxisome proliferator-activated receptors. Rosenfield R. L., Kentsis A., Deplewski D., Ciletti N., J. Invest. Dermatol., 1999 February; 112(2):226-32). These sebocytes have functional similarities close to those of human skin sebocytes (response to androgens and to anti-androgens, accumulation of specific sebum lipids, expression of specific markers of the sebaceous gland). The data resulting from this test are considered as pertinent of potential activity on the human sebaceous gland.
Protocol for culturing sebocytes obtained from rat preputial glands
The preputial glands are obtained from 10-week-old male rats. They are extracted under anesthesia with isoflurane, before euthanizing the animals. The glands are then digested enzymatically with trypsin (0.25% trypsin+collagenase H 1.5 mg/ml/gland). The cells are cultured for 24 hours in 24-well plates (37° C., 5% CO2) in DMEM culture medium supplemented with various factors, especially fetal calf serum (10%), glutamine (1%), a cocktail of antibiotics and anti-mycotic agents and insulin (5 μg/ml). The cells are then placed in Cellgro medium supplemented with various factors (Mediatech®) and the test compounds are then added in response doses (duplicate). After incubation for 5 days, 10 μl of radio labeled (^14C) acetate are added to the culture medium (0.2 μCi/μl, Amersham). The cells are incubated for 24 hours and then washed and recovered after digestion with trypsin. The radiolabelled lipids are then extracted using a methanol/dichloromethane mixture (1/2) and placed on a silica TLC plate (Merck®) using a loading robot. The lipids are then separated and quantified after revelation using a Phosphorimager (analysis by image analysis software). For each compound, the AC50 (concentration for which 50% of the effect of the compound is obtained) is determined. The results are expressed as nanomolar concentration for the following specific sebaceous gland lipids: Triglycerides and/or Cholesterol esters.

In data set [4] the target is T3, PPARα (Homo sapiens, UniProt Q07869).
T3 sequence (Q07869 202-468 limits assumed): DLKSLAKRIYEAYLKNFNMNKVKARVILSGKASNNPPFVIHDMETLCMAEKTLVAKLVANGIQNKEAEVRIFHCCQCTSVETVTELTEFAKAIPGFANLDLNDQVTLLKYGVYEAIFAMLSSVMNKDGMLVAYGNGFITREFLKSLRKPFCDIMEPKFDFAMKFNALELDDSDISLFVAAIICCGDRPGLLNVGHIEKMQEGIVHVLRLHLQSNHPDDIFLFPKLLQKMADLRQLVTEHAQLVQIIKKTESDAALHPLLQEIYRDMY
Put plainly: Cross-curve PPAR transactivation test (PPARα). The format is cell-based. The note with it: HeLN cells, Gal-hPPARα, luciferase reporter; cross curves against reference agonist, Schild regression; n.a means not active; read-out: PPAR alpha Kd app. The protocol:
as §1, §2, §3, §4, §5

`CCCCCCCNC(=O)N(C)c1cccc(-c2ccc(CCC(=O)O)cc2)c1` [Example 2, 3-[3′-(3-heptyl-1-methylureido)biphenyl-4-yl]propanoic acid] displayed a melting point of 101 °C. The Kd in data set [1] was determined as 2 nM. For the same molecule, the Kd in data set [2] is 500 nM.

With `CN(C(=O)Nc1ccc(OCc2ccccc2)cc1)c1cccc(-c2ccc(CCC(=O)O)cc2)c1` [Example 13, 3-{3′-[3-(4-benzyloxyphenyl)-1-methylureido]biphenyl-4-yl}propanoic acid], the melting point lay in the range of 173.5 to 175 °C. The Kd in data set [1] turned out to be 2 nM. Moreover, the Kd in data set [2] is 2000 nM.

Consider `CCCCCCCNC(=O)N(C)c1cccc(-c2ccc(CCC(=O)O)cc2OCCCC)c1` [Example 26, 3-[2-butoxy-3′-(3-heptyl-1-methylureido)biphenyl-4-yl]propanoic acid], for which the Kd in data set [1] is 0.25 nM; in data set [4], 250 nM; in data set [2], 1000 nM. Moreover, in data set [3], the AC50 is 0.005 nM.

As for `CCCCCCCNC(=O)N(C)c1cccc(-c2ccc(CCC(=O)O)cc2OCc2ccc(F)cc2)c1` [Example 44, 3-[2-(4-fluorobenzyloxy)-3′-(3-heptyl-1-methylureido)biphenyl-4-yl]propanoic acid], the Kd worked out at 1 nM in data set [1] and 1000 nM in data set [4]. Besides, in data set [3], the AC50 was 0.008 nM.

In the case of `CCCCCNC(=O)N(C)c1cccc(-c2ccc(CCC(=O)O)cc2OCCCC)c1` [Example 41, 3-[2-butoxy-3′-(1-methyl-3-pentylureido)biphenyl-4-yl]propanoic acid], the Kd in data set [1] was found to be 0.5 nM; in data set [4], 60 nM; in data set [2], 2000 nM. In data set [3], the AC50 was determined as 0.008 nM.

For the molecule `CCCCCCCNC(=O)N(C)c1cccc(-c2ccc(CCC(=O)O)cc2OCCC(C)C)c1` [Example 16, 3-[3′-(3-heptyl-1-methylureido)-2-(3-methylbutoxy)biphenyl-4-yl]propanoic acid], the Kd stood at 1 nM in data set [1] and 1000 nM in data set [4]. In addition, the AC50 in data set [3] amounted to 0.008 nM.

As for `CCCCCCCNC(=O)N(C)c1cccc(-c2ccc(CCC(=O)O)cc2OCCCC(F)(F)F)c1` [Example 38, 3-[3′-(3-heptyl-1-methylureido)-2-(4,4,4-trifluorobutoxy)biphenyl-4-yl]propanoic acid], the Kd in data set [1] came out at 1 nM; in data set [4], 250 nM. Besides, the half-maximal activity concentration (AC50) in data set [3] amounted to 0.006 nM.

Usually melting point stands for the temperature of the solid-liquid transition. The AC50 is the concentration giving half of the maximal activity seen.
